Read-outs that look alike come from different tables or passages of the source.

Assay [1] deals with NUGC-3 cells. Description: NUGC-3 cell proliferation assay (CTG, 7 days). In kind it is cell-based, human. The following applies: Homo sapiens, NUGC-3, 168 h. Summed up:
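Cells (200/well) in 1640 medium with 10% serum exposed to 10-point, 3-fold DMSO dilutions (duplicates) for 7 days at 37°C. Viability read by CellTiter-Glo luminescence; % inhibition normalized to DMSO and blank, IC50 from variable-slope nonlinear fit.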

Assay [2] has as its target T1, p53-Y220C mutant protein (Homo sapiens, UniProt P04637, Y220C).
T1 construct: The recombinant Y220C p53 DBD protein with his-tag
Description: In vitro DNA binding activity assay (TR-FRET). The settings on record: concentration required to increase the binding activity of protein to DNA by 50%. In kind it is biochemical. Summed up: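 SC150, the compound concentration increasing p53-Y220C DNA binding by 50% relative to vehicle, came from background-corrected 665/615 nm TR-FRET ratios. His-tagged DBD and compound were preincubated 60 min at RT before biotin-DNA plus Eu-anti-His/streptavidin-d2 detection overnight in the dark.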
A general note: Time-resolved FRET reads energy transfer from a long-lived donor to a nearby acceptor.

The mark [3] stands for this setting: NUGC-3 cell proliferation, 7 days, CTG, read-out: IC50.

Consider `CN1CC[C@@H](Nc2cccc3c(CC(F)(F)F)c(C#CCNC(=O)c4cnn(C(C)(C)C)c4)nn23)[C@@H](F)C1` [Compound 001, 1-tert-butyl-N-[3-(7-{[(3S,4R)-3-fluoro-1-methylpiperidin-4-yl]amino}-3-(2,2,2-trifluoroethyl)pyrazolo[1,5-a]pyridin-2-yl)prop-2-yn-1-yl]-1H-pyrazole-4-carboxamide], for which, in assay [1] (setting [3]), the IC50 – broadly, the concentration that gives 50% inhibition – is 0.387 µM. Also, the SC150 in assay [2] was found to be 10 nM.

For `CN1CC[C@@H](Nc2cccc3c(CC(F)(F)F)c(C#CCNC(=O)c4cnn(C(C)(C)C)c4N)nn23)[C@@H](F)C1` [Compound 047], in assay [1], the IC50 was 0.129 µM. The same compound showed an SC150 in assay [2] of 7 nM.

In turn, `CCn1ncc(C(=O)NCC#Cc2nn3c(N[C@@H]4CCN(C)C[C@@H]4F)cccc3c2CC(F)(F)F)c1N` [Compound 261, 5-amino-1-ethyl-N-[3-(7-{[(3S,4R)-3-fluoro-1-methylpiperidin-4-yl]amino}-3-(2,2,2-trifluoroethyl)pyrazolo[1,5-a]pyridin-2-yl)prop-2-yn-1-yl]-1H-pyrazole-4-carboxamide] had an IC50 in assay [1] of 0.172 µM. Moreover, the SC150 in assay [2] was determined as 6 nM.

On to `CNC(=O)c1ccc(NCC#Cc2cc3c(N[C@@H]4CCN(C)C[C@@H]4F)cccc3n2CC(F)(F)F)c(OC)c1` [Control compound, reference compound], for which the concentration for half-maximal inhibition (IC50) in assay [1] (setting [3]) was found to be 0.384 µM. In assay [2], this compound showed an SC150 of 14 nM.
